Patent US10422788B2, “Profiling peptides and methods for sensitivity profiling” (Tolero Pharmaceuticals, Inc., priority 2016, dated 2019)

Key:
[1] = tested on: MOLM-13 and OCI-AML3 cells; assay: Whole cell assay, JC-1 mitochondrial potential, permeabilized and non-permeabilized cells; assay type: cell-based; details: 100 μM, normalized mitochondrial potential
Description: (§1) Briefly, frozen MOLM-13 and OCI-AML3 cell stocks were rapidly thawed, and cell viability was determined by Trypan Blue exclusion. Cells were washed in PBS and resuspended in DTEB (or MEB) buffer (135 mM Trehalose [or 150 mM Mannitol], 10 mM HEPES, 50 mM KCl, 20 μMI EGTA, 20 μM EDTA, 0.1% BSA, and 5 mM succinate). The profiling peptides and NOXA ([…]; SEQ ID NO:16) were reconstituted in water to make working solutions allowing for final concentrations of: SEQ ID NO:1 (100 μM), SEQ ID NO:14 (100 μM), SEQ ID NO:15 (100 μM), and NOXA (100 μM). […] Profiling peptides, controls, or NOXA (for comparison purposes) were first added to a microplate. Cells (4×10^5) resuspended in DTEB or MEB buffers were then added to a staining solution ([…], 40 μM JC-1, 1 M 2-mercaptoethanol, DTEB or MEB buffer), before being added to the wells of the microplate in the above (for non-digitonin-treated samples, digitonin was not added to the staining solution above). The mixture was then incubated for up to 2 hours at 30° C., in order for cell permeabilization (if needed), delivery of peptides or compounds, and mitochondrial depolarization to occur. Fluorescence signal of each well was assessed using an Envision multilabel plate reader at Ex475/Em530 and Ex530/Em595. […]

[2] = tested on: MOLM-13 cells; assay: Whole cell assay, JC-1 mitochondrial potential, cells lacking digitonin (FIG. 1B); assay type: cell-based; details: 100 μM peptide, no digitonin
Description: as §1

[3] = tested on: MOLM-13; assay: SEQ ID NO: 14 assay (Example 5, DiOC6 flow cytometry); assay type: cell-based; details: non-permeabilized, DiOC6 MFI vs CCCP and water
[4] = tested on: OCI-AML3; assay: as above; assay type: cell-based; details: non-permeabilized, DiOC6 MFI vs CCCP and water
[5] = tested on: THP-1; assay: as above; assay type: cell-based; details: non-permeabilized, DiOC6 MFI vs CCCP and water
[6] = tested on: HL-60; assay: as above; assay type: cell-based; details: non-permeabilized, DiOC6 MFI vs CCCP and water
[7] = tested on: U-937; assay: as above; assay type: cell-based; details: non-permeabilized, DiOC6 MFI vs CCCP and water
[8] = tested on: KG-1; assay: as above; assay type: cell-based; details: non-permeabilized, DiOC6 MFI vs CCCP and water
[9] = tested on: MV4-11; assay: as above; assay type: cell-based; details: non-permeabilized, DiOC6 MFI vs CCCP and water
Description: (§2) Leukocytes are isolated from primary bone marrow aspirates using ficoll preparation. Leukocytes may be fresh or frozen. If frozen, the sample is thawed prior to testing. Incubate the sample in RPMI with DNase 1 in 37° C. incubator for 60 minutes. Cells are then pelleted, blocked in PBS with 1% BSA for 15 minutes on ice, followed by staining for 30 minutes on ice in the dark. After staining, cells are pelleted and resuspended in DTEB with Ryanodine (30 nM) and Oligomycin. After incubating in a 37° C. incubator for 30 minutes, the sample is separated into fluorescent-activated cell sorting (FACS) tubes and treated with either water (negative control), CCCP (positive control) or SEQ ID NO:14 (subject dependency) and incubated in a 37° incubator for 60 minutes. DiOC6, a cationic mitochondrial dye is then added and incubated for 60 minutes in a 37° C. incubator. The cells are then analyzed via flow cytometry. Blast cells are isolated by gating on the CD45 dim, CD13, CD33 and CD34 high population of each sample. (See FIG. 3). Where indicated, cells may be further gated using CD3 and CD20. Dependency values are calculated using the median fluorescent intensity (MFI) of DiOC6 in each sample according to the following equation: […]
NOXA assay results were compared to the results of the assay described in Example 5.

[10] = tested on: subject samples (AML blast cells); assay: SEQ ID NO: 14 assay (Example 5) on subject samples; assay type: cell-based, human
Description: as §2

[11] = Sample # 17, subject treated with FLAM, complete response
[12] = Sample # 18, subject treated with FLAM, complete response
[13] = Sample # 19, subject treated with FLAM, complete response

Sequence: YGRKKRRQRRRGGGRPEIWMTQGLRRLGDEINAYYAR (profiling peptide sequence) [SEQ ID NO:14]
- activity in the absence of digitonin compared to Mcl-1 binding domain alone or SEQ ID NO:15 [1]: superior activity
- activity compared to the positive control (FCCP) [2]: exceeded the activity of the positive control
- SEQ ID NO: 14 Dependency % [3]: 20.78%
- SEQ ID NO: 14 Dependency % [4]: 19.40%
- SEQ ID NO: 14 Dependency % [5]: 11.70%
- SEQ ID NO: 14 Dependency % [6]: 24.5%
- SEQ ID NO: 14 Dependency % [7]: 10.1%
- SEQ ID NO: 14 Dependency % [8]: 0.0%
- SEQ ID NO: 14 Dependency % [9]: 5.0%
- SEQ ID NO: 14 Dependency % ([10]; Sample # 1): 18.0%
- SEQ ID NO: 14 Result (Pos/Neg) ([10]; Sample # 1): Neg (Concordance based on cutoff of ≥40% MCL-1 Dependency for both methods.)
- SEQ ID NO: 14 Dependency % ([10]; Sample # 2): 44.9%
- SEQ ID NO: 14 Result (Pos/Neg) ([10]; Sample # 2): Pos (Concordance based on cutoff of ≥40% MCL-1 Dependency for both methods.)
- SEQ ID NO: 14 Dependency % ([10]; Sample # 3): 53.8%
- SEQ ID NO: 14 Result (Pos/Neg) ([10]; Sample # 3): Pos (Concordance based on cutoff of ≥40% MCL-1 Dependency for both methods.)
- SEQ ID NO: 14 Dependency % ([10]; Sample # 4): 26.7%
- SEQ ID NO: 14 Result (Pos/Neg) ([10]; Sample # 4): Neg (Concordance based on cutoff of ≥40% MCL-1 Dependency for both methods.)
- SEQ ID NO: 14 Dependency % ([10]; Sample # 5): 70.8%
- SEQ ID NO: 14 Result (Pos/Neg) ([10]; Sample # 5): Pos (Concordance based on cutoff of ≥40% MCL-1 Dependency for both methods.)
- SEQ ID NO: 14 Dependency % ([10]; Sample # 6): 44.3%
- SEQ ID NO: 14 Result (Pos/Neg) ([10]; Sample # 6): Pos (Concordance based on cutoff of ≥40% MCL-1 Dependency for both methods.)
- SEQ ID NO: 14 Dependency % ([10]; Sample # 7): 48.1%
- SEQ ID NO: 14 Result (Pos/Neg) ([10]; Sample # 7): Pos (Concordance based on cutoff of ≥40% MCL-1 Dependency for both methods.)
- SEQ ID NO: 14 Dependency % ([10]; Sample # 8): 17.0%
- SEQ ID NO: 14 Result (Pos/Neg) ([10]; Sample # 8): Neg (Concordance based on cutoff of ≥40% MCL-1 Dependency for both methods.)
- SEQ ID NO: 14 Dependency % ([10]; Sample # 9): 71.8%
- SEQ ID NO: 14 Result (Pos/Neg) ([10]; Sample # 9): Pos (Concordance based on cutoff of ≥40% MCL-1 Dependency for both methods.)
- SEQ ID NO: 14 Dependency % ([10]; Sample # 10): 0.0%
- SEQ ID NO: 14 Result (Pos/Neg) ([10]; Sample # 10): Neg (Concordance based on cutoff of ≥40% MCL-1 Dependency for both methods.)
- SEQ ID NO: 14 Dependency % ([10]; Sample # 11): 40.6%
- SEQ ID NO: 14 Result (Pos/Neg) ([10]; Sample # 11): Pos (Concordance based on cutoff of ≥40% MCL-1 Dependency for both methods.)
- SEQ ID NO: 14 Dependency % ([10]; Sample # 12): 38.3%
- SEQ ID NO: 14 Result (Pos/Neg) ([10]; Sample # 12): Neg (Concordance based on cutoff of ≥40% MCL-1 Dependency for both methods.)
- SEQ ID NO: 14 Dependency % ([10]; Sample # 13): 35.2%
- SEQ ID NO: 14 Result (Pos/Neg) ([10]; Sample # 13): Neg (Concordance based on cutoff of ≥40% MCL-1 Dependency for both methods.)
- SEQ ID NO: 14 Dependency % ([10]; Sample # 14): 2.6%
- SEQ ID NO: 14 Result (Pos/Neg) ([10]; Sample # 14): Neg (Concordance based on cutoff of ≥40% MCL-1 Dependency for both methods.)
- SEQ ID NO: 14 Dependency % ([10]; Sample # 15): 0.0%
- SEQ ID NO: 14 Result (Pos/Neg) ([10]; Sample # 15): Neg (Concordance based on cutoff of ≥40% MCL-1 Dependency for both methods.)
- SEQ ID NO: 14 Dependency % ([10]; Sample # 16): 0.1%
- SEQ ID NO: 14 Result (Pos/Neg) ([10]; Sample # 16): Neg (Concordance based on cutoff of ≥40% MCL-1 Dependency for both methods.)
- SEQ ID NO: 14 Dependency % [10, 11]: 62.4%
- SEQ ID NO: 14 Result (Pos/Neg) [10, 11]: Pos (Concordance based on cutoff of ≥40% MCL-1 Dependency for both methods.)
- SEQ ID NO: 14 Dependency % [10, 12]: 55.0%
- SEQ ID NO: 14 Result (Pos/Neg) [10, 12]: Pos (Concordance based on cutoff of ≥40% MCL-1 Dependency for both methods.)
- SEQ ID NO: 14 Dependency % [10, 13]: 27.8%
- SEQ ID NO: 14 Result (Pos/Neg) [10, 13]: Neg (Concordance based on cutoff of ≥40% MCL-1 Dependency for both methods.)
